ChEMBL document CHEMBL1137741, “QSAR models for 2-amino-6-arylsulfonylbenzonitriles and congeners HIV-1 reverse transcriptase inhibitors based on linear and nonlinear regression methods” (Eur J Med Chem, 2009)

Tested on: Human immunodeficiency virus 1
Assay: Antiviral activity against HIV1
Assay type: functional, organism-based
Conditions: Human immunodeficiency virus 1, read-out: pIC50 (converted)

| SMILES | IC50 |
| --- | --- |
| CCCCOc1cc(C)cc(S(=O)(=O)c2cccc(N)c2C#N)c1 | 0.6 µM |
| COc1ccccc1S(=O)(=O)c1cccc(N)c1C#N | 0.6 µM |
| N#Cc1c(N)cccc1Sc1ccccc1Cl | 4.1 µM |
| COc1cc([S+]([O-])c2cccc(N)c2C#N)cc(C(F)(F)F)c1 (stereo not drawn) | 2.07 µM |
| N#Cc1ccccc1[S+]([O-])c1cccc(N)c1C#N (stereo not drawn) | 3.9 µM |
| Cc1cc(C)cc(Sc2cccc(N)c2C#N)c1 | 0.429 µM |
| N#Cc1c(N)cccc1S(=O)(=O)c1cc(Cl)cc(Cl)c1 | 0.07 µM |
| Cc1cc(C)cc([S+]([O-])c2cccc(N)c2C#N)c1 (stereo not drawn) | 0.34 µM |
| N#Cc1c(N)cccc1[S+]([O-])c1cc(Cl)ccc1Cl (stereo not drawn) | 9.84 µM |
| N#Cc1ccc(Sc2cccc(N)c2C#N)cc1 | 43.8 µM |
| Cc1cc(Br)cc(S(=O)(=O)c2cccc(N)c2C#N)c1 | 0.02 µM |
| N#Cc1c(N)cccc1[S+]([O-])c1ccc(Br)cc1 (stereo not drawn) | 20.2 µM |
| N#Cc1ccccc1S(=O)(=O)c1cccc(N)c1C#N | 5.4 µM |
| CCOc1cc(C)cc(S(=O)(=O)c2cccc(N)c2C#N)c1 | 0.06 µM |
| N#Cc1c(N)cccc1Sc1cccc(C(F)(F)F)c1 | 12.8 µM |
| Cc1ccc(S(=O)(=O)c2cccc(N)c2C#N)cc1 | 9.51 µM |
| COc1cccc([S+]([O-])c2cccc(N)c2C#N)c1 (stereo not drawn) | 16 µM |
| N#Cc1c(N)cccc1Sc1cccc(Br)c1 | 5.11 µM |
| N#Cc1c(N)cccc1Sc1cccc(F)c1 | 9.79 µM |
| COc1cc(C)cc(S(=O)(=O)c2cccc(N)c2C#N)c1 | 0.05 µM |
| Cc1cc(C)cc(S(=O)(=O)c2cccc(N)c2C#N)c1 | 0.01 µM |

| SMILES | IC50 |
| --- | --- |
| N#Cc1cccc(Sc2cccc(N)c2C#N)c1 | 1.73 µM |
| COc1ccc(S(=O)(=O)c2cccc(N)c2C#N)cc1 | 25 µM |
| N#Cc1c(N)cccc1S(=O)(=O)c1cc(Cl)ccc1Cl | 0.3 µM |
| Cc1cccc(Sc2cccc(N)c2C#N)c1 | 6.09 µM |
| COc1cc(C)cc(Sc2cccc(N)c2C#N)c1 | 2 µM |
| COc1cccc(S(=O)(=O)c2cccc(N)c2C#N)c1 | 0.899 µM |
| COc1ccccc1Sc1cccc(N)c1C#N | 4.29 µM |
| N#Cc1cccc(S(=O)(=O)c2cccc(N)c2C#N)c1 | 2.4 µM |
| N#Cc1c(N)cccc1[S+]([O-])c1cccc(C(F)(F)F)c1 (stereo not drawn) | 40 µM |
| N#Cc1c(N)cccc1S(=O)(=O)c1ccccc1 | 2 µM |
| COc1cc(C(F)(F)F)cc(S(=O)(=O)c2cccc(N)c2C#N)c1 | 0.09 µM |
| N#Cc1c(N)cccc1S(=O)(=O)c1cccc(Br)c1 | 0.539 µM |
| N#Cc1c(N)cccc1S(=O)(=O)c1cccc(F)c1 | 3 µM |
| N#Cc1c(N)cccc1Sc1cccc(Cl)c1 | 7.4 µM |
| COc1cccc(Sc2cccc(N)c2C#N)c1 | 6 µM |
| N#Cc1c(N)cccc1[S+]([O-])c1ccccc1Br (stereo not drawn) | 39.2 µM |
| N#Cc1c(N)cccc1S(=O)(=O)c1cccc(C(F)(F)F)c1 | 3.5 µM |
| N#Cc1c(N)cccc1Sc1ccccc1 | 14.6 µM |
| N#Cc1c(N)cccc1S(=O)(=O)c1ccc(Cl)cc1 | 3 µM |
| N#Cc1c(N)cccc1S(=O)(=O)c1ccccc1Br | 5 µM |
| Cc1ccccc1S(=O)(=O)c1cccc(N)c1C#N | 2.3 µM |

| SMILES | IC50 |
| --- | --- |
| COc1cc(Sc2cccc(N)c2C#N)cc(C(F)(F)F)c1 | 5.11 µM |
| N#Cc1c(N)cccc1[S+]([O-])c1cccc(Br)c1 (stereo not drawn) | 0.08 µM |
| Cc1cc(Cl)cc(S(=O)(=O)c2cccc(N)c2C#N)c1 | 0.03 µM |
| Cc1cc(Cl)cc([S+]([O-])c2cccc(N)c2C#N)c1 (stereo not drawn) | 0.32 µM |
| Cc1ccc([S+]([O-])c2cccc(N)c2C#N)cc1 (stereo not drawn) | 49 µM |
| Cc1ccccc1Sc1cccc(N)c1C#N | 16 µM |
| N#Cc1c(N)cccc1S(=O)(=O)c1ccccc1Cl | 4.1 µM |
| COc1ccccc1[S+]([O-])c1cccc(N)c1C#N (stereo not drawn) | 4.8 µM |
| Cc1cccc([S+]([O-])c2cccc(N)c2C#N)c1 (stereo not drawn) | 29.2 µM |
| Cc1cccc(S(=O)(=O)c2cccc(N)c2C#N)c1 | 0.4 µM |
| N#Cc1c(N)cccc1S(=O)(=O)c1cccc(Cl)c1 | 0.59 µM |
| N#Cc1c(N)cccc1Sc1ccccc1Br | 30 µM |
| Cc1cc(Cl)cc(Sc2cccc(N)c2C#N)c1 | 1.76 µM |
| N#Cc1cccc([S+]([O-])c2cccc(N)c2C#N)c1 (stereo not drawn) | 14.2 µM |
| N#Cc1c(N)cccc1Sc1cccc(N)c1 | 31.5 µM |
| N#Cc1c(N)cccc1S(=O)(=O)c1ccc(Br)cc1 | 20 µM |
| N#Cc1c(N)cccc1S(=O)(=O)c1ccccc1F | 3 µM |
| Cc1cc(O)cc(S(=O)(=O)c2cccc(N)c2C#N)c1 | 0.429 µM |
| Cc1ccccc1[S+]([O-])c1cccc(N)c1C#N (stereo not drawn) | 92.9 µM |
| CCCOc1cc(C)cc(S(=O)(=O)c2cccc(N)c2C#N)c1 | 0.06 µM |
| N#Cc1ccc(S(=O)(=O)c2cccc(N)c2C#N)cc1 | 80 µM |
